Measured values: US20260285855A1, “HETEROARYL DERIVATIVES AS DDRS INHIBITORS” (CHIESI FARMACEUTICI S.P.A., priority 2023, published 2026)
pKi: −log10 of the molar value.

How the values were obtained:
DDR1 = target: T1, DDR1 (Homo sapiens, UniProt Q08345); assay: LanthaScreen Europium Kinase Binding assay, DDR1; details: 5 nM DDR1, 20 nM Kinase Tracer 178, 1 h at rt; Ki from IC50 by Cheng-Prusoff; read-out: Ki DDR1
T1 construct: purchased Carna Biosciences
Protocol: (§1) DDR1 and DDR2 binding assays were performed using Life Technologies LanthaScreen™ Europium Kinase Binding assay. […] IC50 values were determined in GraphPad Prism 7.0 software, using 4 parameter model: log (inhibitor) vs. response. IC50 values were converted in Ki using the Cheng-Prusoff equation (Ki-IC50/(1+ [Tracer]/Kd).

DDR2 = target: T2, DDR2 (Homo sapiens, UniProt Q16832); assay: LanthaScreen Europium Kinase Binding assay, DDR2; details: 5 nM DDR2, 10 nM Kinase Tracer 178, 1 h at rt; Ki from IC50 by Cheng-Prusoff; read-out: Ki DDR2
T2 construct: purchased Life Technologies
T2 sequence (Q16832 22-855): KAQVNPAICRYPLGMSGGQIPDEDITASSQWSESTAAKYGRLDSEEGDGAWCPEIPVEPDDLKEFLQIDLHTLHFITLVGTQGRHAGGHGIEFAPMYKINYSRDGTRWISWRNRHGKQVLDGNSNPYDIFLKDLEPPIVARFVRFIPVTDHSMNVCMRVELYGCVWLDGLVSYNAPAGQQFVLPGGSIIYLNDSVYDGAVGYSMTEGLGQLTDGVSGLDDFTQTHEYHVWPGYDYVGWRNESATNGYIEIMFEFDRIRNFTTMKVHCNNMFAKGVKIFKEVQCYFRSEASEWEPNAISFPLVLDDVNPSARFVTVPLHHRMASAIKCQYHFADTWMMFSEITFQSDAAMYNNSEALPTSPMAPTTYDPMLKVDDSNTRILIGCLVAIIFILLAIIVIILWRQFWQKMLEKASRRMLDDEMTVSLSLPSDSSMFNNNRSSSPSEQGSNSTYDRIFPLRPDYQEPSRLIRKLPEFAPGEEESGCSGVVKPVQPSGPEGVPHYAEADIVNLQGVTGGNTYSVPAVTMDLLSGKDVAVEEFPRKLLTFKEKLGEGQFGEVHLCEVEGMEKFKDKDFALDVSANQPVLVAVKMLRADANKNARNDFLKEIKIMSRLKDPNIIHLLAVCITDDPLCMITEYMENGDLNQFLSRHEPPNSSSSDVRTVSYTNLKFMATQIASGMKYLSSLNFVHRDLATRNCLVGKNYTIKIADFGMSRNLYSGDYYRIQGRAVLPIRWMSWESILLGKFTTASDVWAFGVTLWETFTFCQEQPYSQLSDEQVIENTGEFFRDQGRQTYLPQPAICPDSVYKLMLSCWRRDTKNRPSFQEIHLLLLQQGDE
Protocol: as §1

T1 sequence (Q08345 19-913): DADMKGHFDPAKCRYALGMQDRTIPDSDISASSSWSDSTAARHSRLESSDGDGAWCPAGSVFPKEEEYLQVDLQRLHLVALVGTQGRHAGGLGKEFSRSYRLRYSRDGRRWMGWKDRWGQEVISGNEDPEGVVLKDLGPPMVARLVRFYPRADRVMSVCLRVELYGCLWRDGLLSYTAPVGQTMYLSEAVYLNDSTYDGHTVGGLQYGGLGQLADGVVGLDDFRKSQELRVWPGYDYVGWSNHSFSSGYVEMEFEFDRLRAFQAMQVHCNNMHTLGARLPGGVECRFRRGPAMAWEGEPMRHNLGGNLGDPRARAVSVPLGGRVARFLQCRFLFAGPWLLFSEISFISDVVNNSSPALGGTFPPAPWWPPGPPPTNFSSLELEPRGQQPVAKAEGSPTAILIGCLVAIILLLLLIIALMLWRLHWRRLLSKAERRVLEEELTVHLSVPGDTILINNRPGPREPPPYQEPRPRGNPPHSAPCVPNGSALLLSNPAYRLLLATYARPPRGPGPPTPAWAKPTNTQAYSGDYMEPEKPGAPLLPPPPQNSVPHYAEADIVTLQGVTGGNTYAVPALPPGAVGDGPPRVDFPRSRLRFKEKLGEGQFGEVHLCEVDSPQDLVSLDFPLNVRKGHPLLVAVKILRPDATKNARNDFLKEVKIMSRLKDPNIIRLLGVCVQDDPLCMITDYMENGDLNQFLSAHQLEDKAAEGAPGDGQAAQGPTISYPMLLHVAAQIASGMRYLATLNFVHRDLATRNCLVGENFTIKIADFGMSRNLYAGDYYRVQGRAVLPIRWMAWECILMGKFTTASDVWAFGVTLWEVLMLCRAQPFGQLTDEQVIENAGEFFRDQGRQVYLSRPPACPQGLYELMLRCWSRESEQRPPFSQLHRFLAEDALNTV

Row | pKi (DDR1) | pKi (DDR2) | SMILES
1 | 7.60 to 8.30 | 7.00 to 7.60 | COCCn1ccn2ncc(C(=O)N3CC4(CC(N(C)C(=O)Nc5cncc(C(F)(F)F)c5)C4)C3)c12 [Example 213, 1-(2-(1-(2-methoxyethyl)-1H-imidazo[1,2-b]pyrazole-7-carbonyl)-2-azaspiro[3.3]heptan-6-yl)-1-methyl-3-(5-(trifluoromethyl)pyridin-3-yl)urea]
2 | > 8.30 | 7.60 to 8.30 | CN(C(=O)Nc1cncc(C(F)(F)F)c1)C1CC2(C1)CN(C(=O)c1cnn3ccc(N4CCCC4)cc13)C2 [Example 214, 1-methyl-1-(2-(5-(pyrrolidin-1-yl)pyrazolo[1,5-a]pyridine-3-carbonyl)-2-azaspiro[3.3]heptan-6-yl)-3-(5-(trifluoromethyl)pyridin-3-yl)urea]
3 | 7.60 to 8.30 | 7.00 to 7.60 | CN(C(=O)Nc1cc(C(C)(C)C)no1)C1CC2(C1)CN(C(=O)c1cnn3ccn(C)c13)C2 [Example 215, 3-(3-(tert-butyl)isoxazol-5-yl)-1-methyl-1-(2-(1-methyl-1H-imidazo[1,2-b]pyrazole-7-carbonyl)-2-azaspiro[3.3]heptan-6-yl)urea]
4 | > 8.30 | 7.00 to 7.60 | CN(C(=O)Nc1cncc(C(F)(F)F)c1)C1CC2(C1)CN(C(=O)c1cnn3ccccc13)C2 [Example 216, 1-methyl-1-(2-(pyrazolo[1,5-a]pyridine-3-carbonyl)-2-azaspiro[3.3]heptan-6-yl)-3-(5-(trifluoromethyl)pyridin-3-yl)urea]
5 | > 8.30 | 7.60 to 8.30 | COc1c(CO)cc(OC(F)(F)F)cc1NC(=O)N(C)C1CC2(C1)CN(c1cnc3[nH]ncc3c1)C2 [Example 218, 1-(2-(1H-pyrazolo[3,4-b]pyridin-5-yl)-2-azaspiro[3.3]heptan-6-yl)-3-(3-(hydroxymethyl)-2-methoxy-5-(trifluoromethoxy)phenyl)-1-methylurea]
6 | 7.60 to 8.30 | 7.00 to 7.60 | CN(C(=O)Nc1cncc(C(F)(F)F)c1)C1CC2(C1)CN(c1cnc3[nH]ccc3c1)C2 [Example 220, 1-(2-(1H-pyrrolo[2,3-b]pyridin-5-yl)-2-azaspiro[3.3]heptan-6-yl)-1-methyl-3-(5-(trifluoromethyl)pyridin-3-yl)urea]
7 | > 8.30 | 7.60 to 8.30 | CN(C(=O)Nc1cc(Cl)cc(C(F)(F)F)c1)C1CC2(C1)CN(C(=O)c1cnn3ccn(C)c13)C2 [Example 224, 3-(3-chloro-5-(trifluoromethyl)phenyl)-1-methyl-1-(2-(1-methyl-1H-imidazo[1,2-b]pyrazole-7-carbonyl)-2-azaspiro[3.3]heptan-6-yl)urea]
8 | > 8.30 | 7.60 to 8.30 | COCCn1cc(-c2ccc3c(C(=O)N4CC5(CC(N(C)C(=O)Nc6cncc(C(F)(F)F)c6)C5)C4)cnn3c2)cn1 [Example 227, 1-(2-(6-(1-(2-methoxyethyl)-1H-pyrazol-4-yl)pyrazolo[1,5-a]pyridine-3-carbonyl)-2-azaspiro[3.3]heptan-6-yl)-1-methyl-3-(5-(trifluoromethyl)pyridin-3-yl)urea]
9 | > 8.30 | 7.00 to 7.60 | CN(C(=O)Nc1cc(C(F)(F)F)cnn1)C1CC2(C1)CN(C(=O)c1cnn3ccsc13)C2 [Example 228, 1-methyl-1-(2-(pyrazolo[5,1-b]thiazole-7-carbonyl)-2-azaspiro[3.3]heptan-6-yl)-3-(5-(trifluoromethyl)pyridazin-3-yl)urea]
10 | > 8.30 | 7.60 to 8.30 | Cc1ncc(-c2ccc3c(C(=O)N4CC5(CC(N(C)C(=O)Nc6cncc(C(F)(F)F)c6)C5)C4)cnn3c2)o1 [Example 229, 1-methyl-1-(2-(6-(2-methyloxazol-5-yl)pyrazolo[1,5-a]pyridine-3-carbonyl)-2-azaspiro[3.3]heptan-6-yl)-3-(5-(trifluoromethyl)pyridin-3-yl)urea]
11 | > 8.30 | 7.60 to 8.30 | Cc1ncc(-c2ccc3c(C(=O)N4CC5(CC(N(C)C(=O)Nc6cncc(C(F)(F)F)c6)C5)C4)cnn3c2)s1 [Example 234, 1-methyl-1-(2-(6-(2-methylthiazol-5-yl)pyrazolo[1,5-a]pyridine-3-carbonyl)-2-azaspiro[3.3]heptan-6-yl)-3-(5-(trifluoromethyl)pyridin-3-yl)urea]
12 | > 8.30 | 7.60 to 8.30 | CN(C(=O)Nc1cc(C(C)(C)C(F)(F)F)on1)C1CC2(C1)CN(C(=O)c1cnn3ccsc13)C2 [Example 235, 1-methyl-1-(2-(pyrazolo[5,1-b]thiazole-7-carbonyl)-2-azaspiro[3.3]heptan-6-yl)-3-(5-(1,1,1-trifluoro-2-methylpropan-2-yl)isoxazol-3-yl)urea]

More lines, now with the values behind:

Row | SMILES | pKi (DDR1) | pKi (DDR2)
13 | CN(C(=O)Nc1cc(C(F)(F)F)ccn1)C1CC2(C1)CN(C(=O)c1cnn3ccsc13)C2 [Example 217, 1-methyl-1-(2-(pyrazolo[5,1-b]thiazole-7-carbonyl)-2-azaspiro[3.3]heptan-6-yl)-3-(4-(trifluoromethyl)pyridin-2-yl)urea] | > 8.30 | 7.60 to 8.30
14 | CN(C(=O)Nc1cc(OC(F)(F)F)ccn1)C1CC2(C1)CN(c1cnc3[nH]ncc3c1)C2 [Example 219, 1-(2-(1H-pyrazolo[3,4-b]pyridin-5-yl)-2-azaspiro[3.3]heptan-6-yl)-1-methyl-3-(4-(trifluoromethoxy)pyridin-2-yl)urea] | > 8.30 | 7.60 to 8.30
15 | CN(C(=O)Nc1cncc(OC(F)(F)F)c1)C1CC2(C1)CN(c1cnc3[nH]ncc3c1)C2 [Example 221, 1-(2-(1H-pyrazolo[3,4-b]pyridin-5-yl)-2-azaspiro[3.3]heptan-6-yl)-1-methyl-3-(5-(trifluoromethoxy)pyridin-3-yl)urea] | > 8.30 | 7.60 to 8.30
16 | CN(C(=O)Nc1cc(C(C)(C)C)on1)C1CC2(C1)CN(C(=O)c1cnn3ccn(C)c13)C2 [Example 222, 3-(5-(tert-butyl)isoxazol-3-yl)-1-methyl-1-(2-(1-methyl-1H-imidazo[1,2-b]pyrazole-7-carbonyl)-2-azaspiro[3.3]heptan-6-yl)urea] | 7.60 to 8.30 | 7.00 to 7.60
17 | Cc1cc(NC(=O)N(C)C2CC3(C2)CN(C(=O)c2cnn4ccn(C)c24)C3)cc(C(F)(F)F)c1 [Example 223, 1-methyl-1-(2-(1-methyl-1H-imidazo[1,2-b]pyrazole-7-carbonyl)-2-azaspiro[3.3]heptan-6-yl)-3-(3-methyl-5-(trifluoromethyl)phenyl)urea] | > 8.30 | 7.60 to 8.30
18 | COCCc1cn2ncc(C(=O)N3CC4(CC(N(C)C(=O)Nc5cncc(C(F)(F)F)c5)C4)C3)c2n1C [Example 225, 1-(2-(2-(2-methoxyethyl)-1-methyl-1H-imidazo[1,2-b]pyrazole-7-carbonyl)-2-azaspiro[3.3]heptan-6-yl)-1-methyl-3-(5-(trifluoromethyl)pyridin-3-yl)urea] | > 8.30 | 7.00 to 7.60
19 | CN(C(=O)Nc1cc(Br)ccn1)C1CC2(C1)CN(C(=O)c1cnn3ccsc13)C2 [Example 226, 3-(4-bromopyridin-2-yl)-1-methyl-1-(2-(pyrazolo[5,1-b]thiazole-7-carbonyl)-2-azaspiro[3.3]heptan-6-yl)urea] | > 8.30 | 7.60 to 8.30
20 | CN(C(=O)Nc1cncc(C(F)(F)F)c1)C1CC2(C1)CN(C(=O)c1cnn3cc(-c4cccnc4)ccc13)C2 [Example 230, 1-methyl-1-(2-(6-(pyridin-3-yl)pyrazolo[1,5-a]pyridine-3-carbonyl)-2-azaspiro[3.3]heptan-6-yl)-3-(5-(trifluoromethyl)pyridin-3-yl)urea] | > 8.30 | 7.60 to 8.30
21 | CN(C(=O)Nc1cncc(C(F)(F)F)c1)C1CC2(C1)CN(C(=O)c1cnn3cc(-c4cnn(C)c4)ccc13)C2 [Example 231, 1-methyl-1-(2-(6-(1-methyl-1H-pyrazol-4-yl)pyrazolo[1,5-a]pyridine-3-carbonyl)-2-azaspiro[3.3]heptan-6-yl)-3-(5-(trifluoromethyl)pyridin-3-yl)urea] | > 8.30 | 7.60 to 8.30
22 | Cc1ccc(C(F)(F)F)cc1NC(=O)N(C)C1CC2(C1)CN(C(=O)c1cnn3ccn(C)c13)C2 [Example 232, 1-methyl-1-(2-(1-methyl-1H-imidazo[1,2-b]pyrazole-7-carbonyl)-2-azaspiro[3.3]heptan-6-yl)-3-(2-methyl-5-(trifluoromethyl)phenyl)urea] | > 8.30 | 7.60 to 8.30
23 | COc1ccc(-c2ccc3c(C(=O)N4CC5(CC(N(C)C(=O)Nc6cncc(C(F)(F)F)c6)C5)C4)cnn3c2)cc1OC [Example 233, 1-(2-(6-(3,4-dimethoxyphenyl)pyrazolo [1,5-a]pyridine-3-carbonyl)-2-azaspiro[3.3]heptan-6-yl)-1-methyl-3-(5-(trifluoromethyl)pyridin-3-yl)urea] | > 8.30 | 7.60 to 8.30
